Experimental data taken from patent US5157019A, “Serine protease inhibitors” (Monsanto Company, priority 1991, dated 1992).
Each block holds one substance with its values, some of them ahead of it. Ends that are not written are not given here.

Legend:
complement activation = test: Reverse passive arthus reaction (RPAR), histopathology of injection sites; type: in vivo, guinea pigs; design: key: 0 indicating no acute inflamation; 1 indication minimal acute inflammation; 2 indicating mild acute inflammation; 3 indicating moderate acute inflammation; settings: for Degree of inflammation, mean score, protease inhibitor only: guinea pig, intradermal injection of peptide without antibody
Protocol: These exemplary peptide inhibitors (peptides 13, 7 and 27) were assayed for in vivo activity in inhibiting complement activation using the reverse passive arthus reaction (RPAR). RPAR is a model of complement-mediated damage due to activation via interaction with antigen/antibody complexes. Female guinea pigs (400 gm) were pretreated intracardially with bovine serum albumin and Evans blue dye. Ninety minutes later they received bilateral intradermal injections of peptide inhibitor or control material in the thoracolumbar region. Injection sites were excised postmortem and fixed in 10% buffered formalin for pathological evaluation. The peptides were administered to obtain an initial level of […] in the circulatory system.
The histopathological results are outlined below. The degree of inflammation was scored as follows: 0 indicating no acute inflamation; 1 indication minimal acute inflammation; 2 indicating mild acute inflammation; and 3 indicating moderate acute inflammation.

C1s = biological target: T1, C1s (Homo sapiens, UniProt P09871); test: C1s assay by inhibition of fluid phase C4 activation; type: biochemical; settings: Table X; μM concentration at which protease was inhibited 50%; read-out: IC50 C1S
T1 construct: prepared from pooled human plasma; from tissue; host or cells: pooled human plasma
T1 sequence (P09871 16-688): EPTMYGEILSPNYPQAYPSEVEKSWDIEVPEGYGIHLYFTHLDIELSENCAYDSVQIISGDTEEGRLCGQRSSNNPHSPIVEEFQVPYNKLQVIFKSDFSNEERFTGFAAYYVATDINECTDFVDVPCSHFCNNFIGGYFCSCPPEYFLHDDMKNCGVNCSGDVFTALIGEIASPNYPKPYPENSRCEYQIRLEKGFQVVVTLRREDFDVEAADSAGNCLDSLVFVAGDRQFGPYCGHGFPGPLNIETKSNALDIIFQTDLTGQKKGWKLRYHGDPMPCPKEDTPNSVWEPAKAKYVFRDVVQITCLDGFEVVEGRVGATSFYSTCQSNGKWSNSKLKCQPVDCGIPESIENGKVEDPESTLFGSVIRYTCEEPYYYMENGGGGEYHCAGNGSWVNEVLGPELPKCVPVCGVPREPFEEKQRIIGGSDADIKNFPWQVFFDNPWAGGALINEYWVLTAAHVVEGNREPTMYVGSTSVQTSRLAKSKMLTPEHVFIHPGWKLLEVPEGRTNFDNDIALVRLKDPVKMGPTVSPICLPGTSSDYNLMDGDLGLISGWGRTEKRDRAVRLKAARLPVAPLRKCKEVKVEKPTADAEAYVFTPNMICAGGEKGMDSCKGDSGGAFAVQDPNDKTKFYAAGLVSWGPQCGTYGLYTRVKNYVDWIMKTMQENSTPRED
Protocol: (§1) Highly purified C3, C4, Factor D, Factor B, and C1s were prepared from pooled human plasma. Factors B and C4 were radiolabeled by periodate oxidation of sialic acid residues, followed by reduction with tritiated sodium borohydride. In a representative experiment, a solution of 1.2 mg of factor B in 1.8 ml of PBS was treated with 70 μl of 0.1M NaIO4. After 10 min incubation on ice, excess reagent was removed by filtration over "SEPHADEX®" which is a matrix for gel chromatography (1.0 cm×20 cm). To the protein pool was added 60 μl of NaB[^3 H]4 solution and incubated for 30 min on ice. Labeled protein was separated from excess reagent by desalting or dialysis. Human C4 was radiolabeled in the same manner. Radiolabeled proteins were stored at -70° C. in PBS. The specific radioactivity of ^3 H factor B was about 10,000 CPM/μg and that of ^3 H-C4 was 5,000 CPM/μg.
The cleavage of C4 was studied by incubating 10 μg of tritiated C4 with 3-5 ng of C1s at 37° C. for 30 min in 100 μl of PBS (pH 7.10) containing different concentrations of inhibitor. The reaction was stopped by the addition of 2-mercaptoethanol. The extent of cleavage was analyzed by SDS-polyacrylamide gel electrophoresis. The stained bands corresponding to C4α and C4α' were cut out and sliced. The radioactivity of the fragments was measured by liquid scintillation counting. The percent cleavage of the reaction was calculated as follows: [formula]
(§2) Electrophoresis was carried out under reducing conditions in the Laemmli system using slab gel of 8% polyacrylamide. The gels were stained and destained (Fairbanks et al. Biochemistry (1971) 10:2606).
(§3) The percent inhibition of the reaction was calculated according to the following relationship: [formula]
(§4) A: % cleavage without inhibitor
(§5) B: % cleavage with inhibitor
(§6) The concentration inducing 50% inhibition was obtained by plotting the percent inhibition on a probability graph (National Blank Book Co., No. 12-083) on the ordinate and the log of the inhibitor concentration on the abscissa. From this graph, a 50% inhibition concentration IC50 was obtained and this value was employed to express the activity.

Thrombin = Thrombin (Homo sapiens, UniProt P00734); test: Coagulation inhibition assay, thrombin (fibrinogen clotting end point); type: biochemical; settings: 40 μM peptide
Protocol: Inhibitory activity of subject peptides toward thrombin and Factor Xa were done in the following manner. Mix 100 μL Thrombin (3.125 units/ml, 1.125 μg/ml) in TAB with […] Peptide in TAB and incubate for 1 minute at 37° C. Add 50 μL Fibrinogen (2 mg/ml)and measure clotting end point (in seconds) in a Fibrometer (BBL) TAB=Thrombin Assay Buffer: 0.15M NaCl, 6.6 gm/L PEG-6000, 0.01M Imidazole, 0.01 CaCl2, pH 7.4

Cathepsin G = biological target: T2, Cathepsin G (Homo sapiens, UniProt P08311); test: Cathepsin G assay (Suc-Ala-Ala-Pro-Phe-pNA, 410 nm); type: biochemical
T2 construct: purchased Elastin Products Company (EPC) SG-45
T2 sequence (P08311 21-255): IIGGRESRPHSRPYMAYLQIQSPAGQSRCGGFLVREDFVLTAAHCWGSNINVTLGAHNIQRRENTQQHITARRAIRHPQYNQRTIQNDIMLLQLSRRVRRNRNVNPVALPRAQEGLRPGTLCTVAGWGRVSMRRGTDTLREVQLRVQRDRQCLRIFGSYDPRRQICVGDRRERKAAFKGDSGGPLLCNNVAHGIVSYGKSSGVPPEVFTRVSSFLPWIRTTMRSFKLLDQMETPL
Protocol: Reference: Elastin Products Company (EPC) technical data sheet, cathepsin G, No. SG-45.
Method: Spectrophotometric rate determination
A) Buffer; 0.1M Tris, pH 7.5 at 25° C.
B) Substrate; 60 mM Suc-Ala-Ala-Pro-Phe-pNA obtained from Sigma Chemical Company. Solution prepared by dissolving 50 mg substrate in 1.3 ml of 1-methyl-2-pyrrolidinone. Stored at 5° C.
C) Peptide Inhibitors; 200 μM HCl salt. Depending on peptide solubility, dissolved in buffer or DMSO and then buffer added for a final concentration of 10% DMSO.
D) Enzyme; Cathepsin G, EPC SG-45, lot 85117 used for all assays, 0.0077 mg protein per mg solid determined by supplier by Bradford method. Enzyme was dissolved in buffer at a concentration of approx. 5 mg/ml solid. Solution stored on ice, used within 2 hours.
Pipetted the following into semi-micro quartz cuvettes: 0.3 ml buffer, 0.15 ml peptide solution and 0.5 ml of substrate solution. Equilibrate for 5 min. at 25° C., then add 0.05 ml of enzyme solution and monitor the release of pNA spectrophotometrically at 410 nm for at least 3 minutes. The controls contain either 0.45 ml of buffer or 20% DMSO in buffer (for a final concentration of 10% DMSO).
The rate (O.D./min) is obtained as an average over 3 minutes. [formula]

Factor D = biological target: T3, Factor D (Homo sapiens, UniProt P00746); test: Factor D assay by inhibition of fluid phase Factor B activation; type: biochemical; settings: Table X; μM concentration at which protease was inhibited 50%; read-out: IC50 D
T3 construct: prepared from pooled human plasma; from tissue; host or cells: pooled human plasma
Protocol: as §1
The effect of the peptides on Factor D-dependent cleavage of factor B was studied by incubating 3.5 μg of Factor B, 1.5 μg of C3(H2 O) and 0.2 μl of Factor D at 37° C. for 60 min in Mg-PBS containing different concentrations of inhibitor. Uncleaved Factor B and its fragments, Ba and Bb, were first separated by SDS-PAGE and analyzed as described above. The percent cleavage of the reaction was calculated as follows: [formula]
B=radioactivity (CPM) of uncleaved factor B
Bb=radioactivity (CPM) of fragment Bb
Ba=radioactivity (CPM) of fragment Ba
as §2, §3, §4, §5, §6

[1] = system: classical pathway of complement activation; test: Hemolytic assay, classical pathway (lysis of EA cells by normal human serum); type: cell-based; settings: 25 μM peptide
Method: (§7) METHOD: Complement activation of the classical and alternative pathways is measured by lysis of EA and ER cells (respectively) after incubation with serum. Hemolysis is quantitated spectrophotometrically by the absorbance of hemoglobin at 415 nm.
EA cells: Sheep erythrocyte-antibody conjugates stored at 10^9 cells/ml in DGVB (Veronal buffer plus Ca^++ and Mg,^++, 2.5% w/v dextrose and 0.05% w/v gelatin, 0.01% sodium azide)^1
(§8) h NHS: Normal human serum incubated at 56° C. for 1 hour to inactivate complement components.
(§9) B) Wash EA cell (classical pathway) and ER cell (alternative pathway) suspensions with at least an equal volume of PBS^++ (Phosphate buffered saline, with 0.15 mM Ca^++ and 0.5 mM Mg^++). Spin at 2000 rpm for 5 minutes, decant supernatant and resuspend cells. Wash cells twice or until supernatant is obviously clear of any lysed cellular debris.
C) After the final wash, cells should be resuspended in an appropriate volume of PBS^++ so there are approximately 5×10^8 cells/ml. Dilute cell suspension 1:30 with distilled water and determine the absorbance at 541 nm spectrophotometrically. An adsorbance of 0.175 indicates 5×10^8 cells/ml. […]
(§10) G) Read absorbance (Abs) of the supernatant at 415 nm to determine cell lysis. […]
(§11) c) Dilute NHS and h NHS initially so that 100 ul of that dilution in a total of 250 μl will equal the final dilution calculated in the titer assay. […]

[2] = system: alternative pathway of complement activation; test: Hemolytic assay, alternative pathway (lysis of ER cells by normal human serum); type: cell-based; settings: 25 μM peptide
Method: as §7
ER cells: Rabbit erythrocytes stored at 10^9 in Alsevers buffer, 0.01% sodium azide.^2
as §8, §9
C) After the final wash, cells should be resuspended in an appropriate volume of PBS^++ so there are approximately 5×10^8 cells/ml. Dilute cell suspension 1:30 with distilled water and determine the absorbance at 541 nm spectrophotometrically. An adsorbance of 0.175 indicates 5×10^8 cells/ml. Adjust the volume of the cell suspension accordingly with PBS^++ to get a final concentration of 2.5×10^8 cells/ml. […]
as §10, §11

HUMAN SPUTUM ELASTASE = biological target: T4, HUMAN SPUTUM ELASTASE (Homo sapiens, UniProt P08246); test: Elastase assay (MeO-Suc-Ala-Pro-Val-pNA); type: biochemical; settings: 200 μM peptide
T4 construct: HUMAN SPUTUM ELASTASE; purchased Elastin Products Company SE563; host or cells: human sputum (from the product name)
T4 sequence (P08246 30-267): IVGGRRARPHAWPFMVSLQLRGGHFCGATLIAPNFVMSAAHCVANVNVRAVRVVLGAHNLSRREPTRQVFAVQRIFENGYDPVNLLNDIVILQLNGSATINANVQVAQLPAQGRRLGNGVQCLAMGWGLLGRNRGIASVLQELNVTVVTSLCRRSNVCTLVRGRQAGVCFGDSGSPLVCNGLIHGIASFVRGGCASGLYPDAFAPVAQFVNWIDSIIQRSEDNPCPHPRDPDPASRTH
Protocol: Enzyme used is "HUMAN SPUTUM ELASTASE®" which is an enzyme which is the target protease for α1 antitrypsin from Elastin Products Company, Catalog No. SE563, lot 85071, 875 units/mg as determined by supplier with N-Suc-Ala-Ala-Ala-pNA; prepared at 0.2 mg/mL in 0.1M Tris·HCl, pH 8.8 at 37 degrees C. An amount of enzyme is used to give approximately 0.1 change in Absorbance/min; which in this assay was 1 μg.
The substrate is MeO-Suc-Ala-Pro-Val-pNA, Sigma Catalog No. M-4765. About 50 mg of the substrate is dissolved in 1 ml of 1-methyl-2-pyrrolidinone and diluted to 33 mls. with 0.1M Tris-HCl, pH 7.5, containing 0.5M NaCl, and 0.01 wt % sodium azide.
Peptide solutions are prepared at 500 μM, using 1.5% of the final volume of DMSO first and diluting with distilled water (DW) or 0.1M Tris.HCl, pH 8.8 at 37 degrees C. [formula]

Plasmin = Plasmin (Homo sapiens, UniProt P00747); test: Plasmin assay (S2251); type: biochemical; settings: 200 μM peptide
Protocol: Substrate H-D-Val-Leu-Lys-pNA·HCl (S2251, Kabi), 10 mM in deionized water; may be frozen for future use.
Buffer 50 mM Tris·HCl, pH 7.4 containing 0.01% Tween 80
Inhibitor 400 μM in deionized water
Enzyme Plasmin; 0.5 U/ml in buffer (Cat #P-4895, Sigma Chemical Co., St. Louis, Mo.)
Mix 220 μL buffer, 200 μL deionized water (control) or inhibitor solution and 40 μL substrate. Incubate for 2 min at 37° C. Transfer 230 μL to a microcuvette, add 40 μL of enzyme, mix, and measure rate spectrophotometrically at 405 nm for about 5 min. Inhibition (%) is calculated in the same manner as in previous assays.

tPA = biological target: T5, tPA (Homo sapiens, UniProt P00750); test: Tissue plasminogen activator (tPA) assay (S2288); type: biochemical; settings: 10 μM peptide
T5 construct: Enzyme tPA, 2 chain activity standard; purchased American Diagnostica, Inc. 116
Protocol: Substrate H-D-Ile-Pro-Arg-pNA·2HCl (S2288, Kabi), 10 mM in deionized water; may be frozen for future use.
Buffer 50 mM Tris·HCl, pH 7.4 containing 0.01% Tween 80.
Inhibitor […] in deionized water.
Enzyme tPA, 2 chain activity standard (Catalog #116, American Diagnostica, Inc.); stock solution=10 μL of original solution per mL in buffer.
Mix 200 μL of buffer, 200 μL of deionized water (control) or inhibitor solution and 40 μL of substrate solution. Incubate for 2 min. at 37° C., add 40 μL of enzyme, mix, and measure rate spectrophotometrically at 405 nm for about 5 min. Inhibition (%) is calculated in the same manner as in previous assays.

[3] = 200 μM peptide (head of Table IX)

T5 sequence (P00750 311-562 limits assumed): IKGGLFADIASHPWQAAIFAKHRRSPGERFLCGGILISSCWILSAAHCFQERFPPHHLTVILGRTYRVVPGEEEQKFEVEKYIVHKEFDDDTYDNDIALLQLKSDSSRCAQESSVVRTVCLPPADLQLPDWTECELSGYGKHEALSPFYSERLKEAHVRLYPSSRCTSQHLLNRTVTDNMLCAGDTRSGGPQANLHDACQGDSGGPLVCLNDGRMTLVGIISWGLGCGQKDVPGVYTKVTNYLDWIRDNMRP
T5 sequence (P00750 36-310 partner limits assumed): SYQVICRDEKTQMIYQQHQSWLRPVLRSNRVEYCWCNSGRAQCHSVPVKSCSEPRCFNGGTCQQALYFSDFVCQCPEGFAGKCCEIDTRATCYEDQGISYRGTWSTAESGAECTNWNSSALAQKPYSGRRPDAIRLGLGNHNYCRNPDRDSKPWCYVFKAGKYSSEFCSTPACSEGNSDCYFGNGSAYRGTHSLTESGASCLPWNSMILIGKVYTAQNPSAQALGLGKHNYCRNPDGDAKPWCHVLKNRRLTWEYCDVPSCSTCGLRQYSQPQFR
T3 sequence (P00746 26-253): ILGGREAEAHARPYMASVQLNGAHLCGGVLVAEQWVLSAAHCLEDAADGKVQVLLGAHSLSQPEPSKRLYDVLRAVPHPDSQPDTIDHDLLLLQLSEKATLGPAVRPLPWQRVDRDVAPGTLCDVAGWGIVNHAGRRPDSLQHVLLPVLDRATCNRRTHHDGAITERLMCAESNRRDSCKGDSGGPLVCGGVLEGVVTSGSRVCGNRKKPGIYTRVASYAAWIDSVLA
Plasmin, sequence (P00747 581-810 limits assumed): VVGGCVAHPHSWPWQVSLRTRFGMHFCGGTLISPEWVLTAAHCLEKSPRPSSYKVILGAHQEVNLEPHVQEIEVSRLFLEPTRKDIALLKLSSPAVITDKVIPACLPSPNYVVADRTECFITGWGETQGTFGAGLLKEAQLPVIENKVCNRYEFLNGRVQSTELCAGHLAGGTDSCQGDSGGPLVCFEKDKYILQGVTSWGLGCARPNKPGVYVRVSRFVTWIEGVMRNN
Plasmin, sequence (P00747 97-580 partner limits assumed): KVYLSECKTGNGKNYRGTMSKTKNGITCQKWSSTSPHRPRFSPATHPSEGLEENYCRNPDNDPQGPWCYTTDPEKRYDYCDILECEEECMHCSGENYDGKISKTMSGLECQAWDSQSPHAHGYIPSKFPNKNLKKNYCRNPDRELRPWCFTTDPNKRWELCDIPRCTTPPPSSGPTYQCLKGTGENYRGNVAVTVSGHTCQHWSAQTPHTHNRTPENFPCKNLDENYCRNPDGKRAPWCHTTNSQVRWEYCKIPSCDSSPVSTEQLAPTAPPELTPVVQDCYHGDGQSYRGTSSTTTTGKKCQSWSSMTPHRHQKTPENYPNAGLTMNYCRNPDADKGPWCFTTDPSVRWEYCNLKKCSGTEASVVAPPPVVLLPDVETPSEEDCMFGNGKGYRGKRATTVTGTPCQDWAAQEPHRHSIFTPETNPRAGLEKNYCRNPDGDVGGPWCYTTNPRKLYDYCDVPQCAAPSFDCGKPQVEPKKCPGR

inhibition at 10 µM (tPA): 55%
Substance: RPFLVFILPNIFLRVANP [Peptide 44]

inhibition at 10 µM (tPA): 8%
Substance: RPFLVFIRPNDFLGRVANP [Peptide 41]

inhibition at 10 µM (tPA): 0%
Substance: RPFLVFLPNILRVANP [Peptide 46]

The next lines start with the substance.

Substance: AGRSLNPNRVTFKANRPFLVFI [Peptide 7]
Degree of inflammation, mean score, protease inhibitor only (complement activation): 0 | IC50 (C1s): 39 µM | inhibition at 40 µM (Thrombin): 50% | inhibition at 200 µM (Cathepsin G; [3]): 28% | IC50 (Factor D): 145 µM

Substance: GVRGPRVVERVTFKANRPFLVFI-OH [Peptide 13]
Degree of inflammation, mean score, antibody plus protease inhibitor (complement activation; guinea pig RPAR, intradermal anti-bovine serum albumin plus peptide, antibody only mean score 3): 1 | Degree of inflammation, mean score, protease inhibitor only (complement activation): 0 | % inhibition, classical pathway (CP) [1]: 75% | % inhibition, alternative pathway (AP) [2]: 61%

Substance: LRYNKPFILVLFETPGNSLVFLGRISNPATK [Peptide 23]
Elastase Inhibition (HUMAN SPUTUM ELASTASE): 0% | Plasmin % inhibition (Plasmin): 67% | Cathepsin G % inhibition (Cathepsin G; 100 μM peptide (Tables VI, VIII)): 0% | Cathepsin G Inhibition (Cathepsin G; [3]): 0%

Substance: RPFLVFILPNIFLGRVANP [Peptide 39]
inhibition at 10 µM (tPA): 55%

Substance: RPFLVFIRPGDIFLGRVANP [Peptide 40]
inhibition at 10 µM (tPA): 39%
